Residues, ends and D or L forms follow the SMILES beside them. *: point of attachment. Cbz = O=C(OCc1ccccc1)*; CH2F = FC*
Columns and labels:
commissural neurons = test: Dorsal spinal cord (commissural explant) survival assay; assay type: cell-based, rat
Protocol: To examine functional roles of DR6 in axonal degeneration and programmed cell death of commissural neurons, an RNAi-based dorsal spinal cord survival assay (Kennedy et al., Cell, 78:425-435 (1994); Wang et al., supra, 1999) was conducted (see FIG. 3). E13 rat or E11.5 mouse embryos were placed in L15 medium (Gibco) and siRNAs (IDT) together with green fluorescent protein (“GFP”)-encoding plasmids were injected into the neural tubes. The siRNAs and plasmids were then delivered to dorsal progenitor cells by electroporation. Dorsal spinal cord explants were dissected out, embedded into a 3D-collagen gel matrix, and cultured in Opti-MEM/F12 medium (Invitrogen) with recombinant netrin-1 ([…]) and 5% horse serum (Sigma) at 37° C. in a 5% CO2 environment. Within 16 hours in response to chemo-attractant netrin-1, commissural axons grow out of the explant into the collagen matrix gel (Kennedy et al., supra, 1994). Commissural axons are visualized by GFP fluorescence by observation using an inverted microscope. […]
Control non-targeting, or targeting DR6 siRNA #2, or targeting DR6 siRNA #3 (IDT) together with either wild-type or mis-match DR6 cDNA and GFP-encoding plasmids. […] Within 16 hours in response to chemo-attractant netrin-1 commissural axons grow out of the explant into the collagen matrix gel (Kennedy et al., Cell 78:425-435 (1994). Commissural axons are visualized by GFP fluorescence by observation using inverted microscope. After 48 hours in culture in the absence of trophic factor support derived from the floorplate, commissural neurons undergo programmed cell death and their axons degenerate (Wang et al., Nature, 401:765-769 (1999)) (FIG. 4B). However, the axonal degeneration program can be blocked by introduction of a targeting DR6-specific siRNA #3 (FIG. 4B). […]
A dorsal spinal cord survival assay (as described in Example 2 above) was conducted using anti-DR6 antibodies. Microscopic observation (using green fluorescence channel for GFP) was employed to visualize commissural axons. […]

sensory neurons = test: NGF deprivation assay in Campenot Chambers, local sensory axon degeneration (TUJ1 stain); assay type: cell-based, mouse
Protocol: Materials and methods used to generate the data shown in this figure are as follows. To examine whether ligand is required for DR6 function in sensory axonal degeneration, a compartmented culture analysis of sensory axon growth and degeneration was carried out as follows. A Campenot nerve cell chamber system was used to isolate neuronal processes (axons) from the cell bodies in different compartments (separate fluid environments), analogous to neuronal cell bodies in one location of the nervous system projecting their axons to a distal target in another location. The assay was carried out as originally described by Campenot (Campenot et al., J. Neurosci. 11(4): 1126-39 (1991)) with the following modifications. Briefly, 35-mm tissue culture dishes were coated with PDL/Laminin and scratched with a pin rake (Tyler Research) to generate tracks, as illustrated for example in FIGS. 1 and 4 of Campenot et al., supra. […]
To trigger local axonal degeneration, NGF-containing medium from axonal compartments was substituted with neurobasal medium with an NGF blocking antibody (anti-NGF, Genentech, Inc., 20 ug/ml). Zero hours, 6 hours, or 24 to 48 hours following NGF deprivation, sensory neurons were fixed in 4% PFA for 30 minutes at room temperature and processed for immunofluorescence staining with axonal marker TUJ-1 (Covance, 1:500 dilution) to visualize degenerating axons by fluorescence microscopy (FIG. 11B) (as above described in Example 7). […]
To examine whether ligand is required for DR6 function in axonal degeneration program triggered by NGF withdrawal, 30 μg/ml of hDR6-ECD-Fc immunoadhesin protein (described in Example 3 above) or 30 μg/ml of a control Fc (Genentech, Inc.) was included together with anti-NGF treatment in axonal compartments of Campenot Chambers. Zero to 24 hours after NGF deprivation, axons in Campenot Chambers were fixed with 4% PFA/PBS and visualized by immuno-fluorescence staining with TUJ-1 (1:500, Covance)/secondary antibody conjugated to a fluorescence group Alexa 488 (Molecular Probes, BD) (FIG. 11B). […]

[1] = patients taking stable doses of Donepezil; changes from baseline; cited from earlier work
[2] = tested on: DR6-AP binding sites on BAX null sensory axons; test: In situ DR6-AP sensory axon binding assay after NGF withdrawal; assay type: cell-based, mouse; conditions: OM99-2 1 uM; BAX null sensory axons E12.5
Protocol: For the in situ DR6-AP sensory axon binding assay, either wild-type or Bax null sensory explants were cultured in Neurobasal medium/B27 (Invitrogen) as outlined in the Examples 7-8 above, with 50 ng/ml NGF (Roche). Two days post-plating, DRG explants were either left untreated or deprived from NGF as described above in Examples 7-8. Bax inhibitory peptide was added where indicated on FIG. 12B (10 uM, Bax-V5, Tocris). Twelve hours post-NGF deprivation, DRG explants were washed twice with the binding buffer (HBSS, Gibco Cat. No. 14175-095, with 0.2% BSA, 0.1% NaN3, 5 mM CaCl2, 1 mM MgCl2, 20 mM HEPES, pH=7.0). AP binding assay was then carried out by making a 1:1 mixture of DR6-AP conditioned medium and the binding buffer (or control AP conditioned medium and the binding buffer), which was applied directly to DRG explants in 8-well culture slides (Becton, Dickinson and Company) and incubated for 90 minutes at room temperature.
Following the incubation, unbound DR6-AP proteins were washed away by rinsing DRG explants five times with the binding buffer. DRG explants were then fixed with 3.7% formaldehyde diluted in PBS, for 12 minutes at room temperature. The remaining formaldehyde was removed by rinsing DRG explants 3 times with HBS buffer (20 mM HEPES pH=7.0, 150 mM NaCl). Endogenous AP activity was blocked by heat inactivation at 65° C. in HBS buffer for 30 minutes. […]

In the case of (L)-HIV-TAT48-57-PP-JBD20 [L-JNK-I], the “axonal degeneration of commissural neurons” value (commissural neurons; peptide JNK inhibitor at 1 μM) is reported as “partially blocked axonal degeneration”.

With “hDR6-ECD-Fc: human DR6 extracellular domain sequence fused with Fc, SEQ ID NO: 4” the commissural axon degeneration (commissural neurons; 48 hours, 30 μg/ml or 10 μg/ml hDR6-ECD-Fc) was “delayed” and the “sensory axonal degeneration induced by NGF withdrawal” value (sensory neurons; 30 μg/ml in axonal compartment with anti-NGF, 0, 6 and 24 hours, vs control Fc) was “delayed sensory axonal degeneration”.

In the case of `CC12CC3CC(C)(C1)CC(N)(C3)C2` [Memantine], the “outcome measures SIB, ADCS-ADL19, CIBIC-Plus, NPI, BGP vs placebo” value [1] is listed as “exhibiting a benefit over placebo”.

In the case of `CC[C@H](C)[C@H](NC(=O)OCc1ccccc1)C(=O)N[C@@H](CCC(=O)OC)C(=O)N[C@H](C(=O)N[C@@H](CC(=O)OC)C(=O)CF)[C@@H](C)O` [Z-IETD-FMK] (Cbz-IE(OMe)TD(OMe)-CH2F), the “sensory axonal degeneration after anti-NGF” value (sensory neurons; neurons cultured 5 days, then 24 hours, SP 600125 1 uM, Z-IETD-FMK 10 uM, Z-DEVD-FMK 10 uM) is reported as “delayed”.

For OM99-2, the “disappearance of DR6-AP binding sites from sensory axons following NGF withdrawal” value [2] was “can block the disappearance of DR6-AP binding sites” and the “sensory axonal degeneration in absence of NGF” value (sensory neurons; BACE inhibitor 1 uM, FIG. 15C) was “blocked”.

For “5′-CAAUAGGUCAGGAAGAUGGCU-3′ [DR6-specific siRNA #3]”, the “axonal degeneration of commissural neurons” value (commissural neurons; DR6 siRNA electroporated with GFP plasmid, 48 hours in culture without floorplate trophic support) was “blocked”.

Source: US20110223630A1, “METHOD FOR SCREENING FOR COMPOUNDS THAT INHIBIT NEURODEGENERATION” (priority 2008, published 2011)
